Source: US7528225B2, “Peptide epitopes of apolipoprotein B” (Forskarpapatent I Syd, priority 2001, dated 2009)
“Also recorded” adds a separate entry of the source.

Assays:
[1] = test system: atherosclerosis in apo E knockout mice; assay: Peptide immunization of Apo E (−/−) mice on high cholesterol diet: atherosclerotic plaque size and composition; details: for Atherosclerotic plaque in the descending aorta, en face oil red O, in comparison to control (in words): Apo E (−/−) mice vs Alum control; for mean collagen content in the aortic sinus plaques: Trichrome staining; for mean collagen content in the aortic sinus plaques / Total plaque size in aortic sinus / % of plaque in aorta (flat prep.) / Oil red O (+) area (% of aortic sinus plaque) / Aortic arch plaque size: mean ± Std; for Effect on atherosclerosis in the aorta: immunization of apo E knockout mice with single peptide sequence or mixture (Table B); for Total plaque size in aortic sinus: Apo E (−/−) mice, sacrifice at 25 weeks; for % of plaque in aorta (flat prep.): descending thoracic and abdominal aorta, en face, oil red O; for Oil red O (+) area (% of aortic sinus plaque): lipid content of aortic sinus plaque
Description: Apo E (−/−) mice received subcutaneous primary immunization at 6-7 weeks of age, followed by an intra-peritoneal booster 3 weeks later. Mice were fed high cholesterol diet from the onset of immunization and continued until sacrifice at the age of 25 weeks.
Alum was used as immunoadjuvant and mixed with peptide conjugate with 1:1 dilution in volume. The amount of peptide in each immunization was 33 μg/100 μl per injection.
Apo E (−/−) mice from the Jackson Laboratories (Bar Harbor, Me.) received subcutaneous primary immunization at 6-7 weeks of age, followed by an intra-peritoneal booster 3 weeks later. Mice were fed high cholesterol diet from the onset of immunization and continued until sacrifice at the age of 25 weeks. Blood samples were collected 2 weeks after booster and at the time of sacrifice. Mice receiving Alum served as control. […] At the time of sacrifice, mice were anesthetized by inhalation Enflurane. Plasma was obtained by retro-orbital bleeding prior to sacrifice.
To evaluate the effect of peptide immunization on atherosclerosis formation, the plaque size at aortic sinus was assessed, aortic arch and descending thoracic and abdominal aorta. After the heart and aortic tree were perfused with normal saline at physiological pressure, the heart and proximal aorta were excised and embedded in OCT compound (Tissue-Tek) and frozen sectioned. Serial 6-μm-thick sections were collected from the appearance of at least 2 aortic valves to the disappearance of the aortic valve leaflets for aortic sinus plaque evaluation. Typically 3 consecutive sections were on one slide and a total of 25-30 slides were collected from one mouse and every fifth slide was grouped for staining. Ascending aorta and aortic arches upto left subclavian artery were also sectioned and processed similarly. Descending thoracic and abdominal aorta were processed separately for en face evaluation of plaque formation after oil red O staining.
Chicken egg albumin (Sigma) in a concentration of 0.8 g/ml water was mixed 1:1 with glycerol. Sodium azide was added to make a final concentration of sodium azide 0.2%. After descending thoracic and abdominal aorta was cleaned off surrounding tissue and fat, the segment of aorta from left subclavian artery to the level of renal artery was then carefully removed for overnight fixation in Histochoice (Amresco). Aorta was then carefully opened longitudinally and placed with luminal side up on a slide freshly coated with egg albumin solution. After albumin solution became dry, the aorta was stained with Oil red O to assess the extent of atherosclerosis with computer-assisted histomorphometry.

[2] = test system: Apo E (−/−) mice; assay: Antibody titer against immunized peptide after immunization (mouse serum ELISA); type: in vivo; details: mouse serum 1/50; immunized group; mean ± Std
Description: Antibody titer measurement. To measure the antibody response after peptide immunization, an ELISA was developed. Antibody titer against immunized peptide was measured using blood collected at 2 weeks after booster and at sacrifice. Antibody response against 3 peptides was also determined in Alum group at the same time-points. In brief, native synthetic peptides diluted in PBS pH 7.4 (20 μg/ml) were absorbed to microtiter plate wells (Nunc MaxiSorp, Nunc, Roskilde, Denmark) in an overnight incubation at 4° C. […] After rinsing, deposition of antibodies directed to the peptides was detected by using biotinylated rabbit anti-mouse Ig antibodies (Dako A/S, Glostrup, Denmark) appropriately diluted in TBS-T. After another incubation for 2 h at room temperature the plates were washed and the bound biotinylated antibodies were detected by alkaline phosphatase conjugated streptavidin (Sigma), incubated for 2 h at room temperature. Using phosphatase substrate kit (Pierce) developed the colour reaction and the absorbance at 405 nm was measured after 1 h of incubation at room temperature. Mean values were calculated after the background was subtracted.

Question: Which results are given for ATRFKHLRKYTYNYQAQSSS [Peptide 2]?
Answer: Atherosclerotic plaque in the descending aorta, en face oil red O, in comparison to control (in words) ([1]; listed as peptide No. 2): substantially reduced atherosclerosis; also recorded: significantly reduced atherosclerotic burden; mean collagen content in the aortic sinus plaques [1]: 40.0±7.7%; Effect on atherosclerosis in the aorta [1]: −67.7%; macrophage infiltration in the aortic sinus plaques (MOMA-2) ([1]; immunohistochemistry): significantly reduced macrophage infiltration; Increase of antibody titer against immunized peptide after immunization [2]: 2.4±1.0 fold

Question: With EEEMLENVSLVCPKDATRFK [Peptide 1] as the sequence, how does the “Atherosclerotic plaque in the descending aorta, en face oil red O, in comparison to control (in words)” value ([1]; listed as Peptide No 1) read?
Answer: The value was “did not produce a significant reduction in atherosclerosis”.

Question: And the “Total plaque size in aortic sinus” value [1]?
Answer: The value was 0.48 ± 0.14 mm^2.

Question: What about the “mean collagen content in the aortic sinus plaques” value [1] of the same sequence?
Answer: The value was 35.6±8.5%.

Question: What about the “% of plaque in aorta (flat prep.)” value [1] of the same sequence?
Answer: Its value is 17 ± 4.3%.

Question: And the “Effect on atherosclerosis in the aorta” value [1]?
Answer: The value was −15.4%.

Question: What about the “Oil red O (+) area (% of aortic sinus plaque)” value [1] of the same sequence?
Answer: The value was 32.0 ± 8.1%.

Question: And the “Aortic arch plaque size” value [1]?
Answer: Its value is 0.054 ± 0.027 mm^2.

Question: And the “Effect of immunisation on the development of atherosclerosis (in words)” value ([1]; summary statement)?
Answer: The value was “lacks total effect”.

Question: And the “Increase of antibody titer against immunized peptide after immunization” value [2]?
Answer: The value was 6.1±3.1 fold.

Question: How did the “Effect on atherosclerosis in the aorta” value [1] turn out when FPDLGQEVALNANTKNQKIR [Peptide 240] was run?
Answer: Its value is 0%.

Question: For HTFLIYITELLKKLQSTTVM [Peptide 301], which “Atherosclerotic plaque in the descending aorta, en face oil red O, in comparison to control (in words)” value [1] is on record?
Answer: Its value is “substantially reduced atherosclerosis”.

Question: What about the “Total plaque size in aortic sinus” value [1] of the same sequence?
Answer: Its value is 0.46 ± 0.16 mm^2.

Question: What about the “% of plaque in aorta (flat prep.)” value [1] of the same sequence?
Answer: The value was 8.9 ± 2.2 %.

Question: And the “Effect on atherosclerosis in the aorta” value [1]?
Answer: Its value is −55.2%.

Question: And the “Oil red O (+) area (% of aortic sinus plaque)” value [1]?
Answer: The value was 23.8 ± 4.1%.

Question: What about the “Aortic arch plaque size” value [1] of the same sequence?
Answer: The value was 0.050 ± 0.024 mm^2.

Question: With IEIGLEGKGFEPTLEALFGK [Peptide 45] as the sequence, how does the “Effect on atherosclerosis in the aorta” value [1] read?
Answer: The value was −47.4%.

Question: How did the “Effect on atherosclerosis in the aorta” value [1] turn out when KTTKQSFDLSVKAQYKKNKH [Peptide 210] was run?
Answer: The value was −57.9%.

Question: Which “Effect on atherosclerosis in the aorta” value [1] does the source give for VISIPRLQAEARSEILAHWS [Peptide 74] here?
Answer: The value was −31.0%.
